Structures can show the parent of a compound that is named as a salt. Where two headings read alike, the source gives them in different places.
Target: T1, Human IP6K1 (Homo sapiens, UniProt Q92551)
T1 construct: GST (N, cleaved yes); made in house; host or cells: C43 E. coli, pGEX-6P-2
Test: IP6K1 high-throughput screen of the Sigma LOPAC (ADP-Glo Max, single point);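 further: final compound concentration 10µM in 5% DMSO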
Format: biochemical

[1] = Sigma LOPAC single-point screen, ADP-Glo Max raw signal per well
[2] = Sigma LOPAC single-point screen, Z-score from plate average and StDev
[3] = LOPAC single-point screen, ADP-Glo Max raw signal per well
[4] = LOPAC single-point screen, Z-score from raw signal with plate average and StDev
[5] = LOPAC single-point screen, ADP-Glo Max luminescence raw signal per well
[6] = LOPAC single-point screen, Z-score from plate average and StDev
[7] = LOPAC single-point screen, Z-score against plate average and StDev
[8] = LOPAC single-point screen, Z-score relative to plate average and StDev

T1 sequence (Q92551 whole entry): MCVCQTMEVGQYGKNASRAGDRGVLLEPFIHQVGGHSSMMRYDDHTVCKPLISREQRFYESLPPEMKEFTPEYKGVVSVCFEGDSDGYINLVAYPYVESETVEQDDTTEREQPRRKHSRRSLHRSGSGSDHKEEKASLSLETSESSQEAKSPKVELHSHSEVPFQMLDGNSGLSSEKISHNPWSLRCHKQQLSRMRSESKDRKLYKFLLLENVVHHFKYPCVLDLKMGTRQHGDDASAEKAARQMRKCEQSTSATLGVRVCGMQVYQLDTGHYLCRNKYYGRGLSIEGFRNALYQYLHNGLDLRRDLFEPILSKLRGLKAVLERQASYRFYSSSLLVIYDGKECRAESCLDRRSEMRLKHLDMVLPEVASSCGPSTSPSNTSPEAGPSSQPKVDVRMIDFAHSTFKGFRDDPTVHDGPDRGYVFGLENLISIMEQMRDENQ

O=C1Nc2ccccc2/C1=C1/Nc2ccccc2/C1=N\O [Indirubin-3 -oxime]
Raw Signal [1]: 58050
Z-score [2]: 0.5855

CC[C@@H]1C(=O)OC[C@@H]1Cc1cncn1C.Cl [(+)-Pilocarpine hydrochloride]
Raw Signal [1]: 57845
Z-score [2]: 0.5799

CCCC(=O)NCCc1c2n(c3ccc(OC)cc13)Cc1ccccc1-2 [IIK7]
Raw Signal [3]: 53632
Z-score [4]: -0.128

Cl.N[C@@H](Cc1cnc[nH]1)C(=O)O [L-Histidine hydrochloride]
Raw Signal [1]: 61451
Z-score [2]: 1.276

Nc1ncnc2c1ncn2C1CCCO1 (stereo not drawn) [SQ 22536]
Raw Signal [5]: 63004
Z-score [6]: 1.356

CNC1(C)C2CCC(C2)C1(C)C (stereo not drawn) [Mecamylamine hydrochloride]
Raw Signal [3]: 55214
Z-score [7]: 0.1379

NS(=O)(=O)c1cc2c(cc1Cl)NC(C1CC3C=CC1C3)NS2(=O)=O (stereo not drawn) [Cyclothiazide]
Raw Signal [1]: 61194
Z-score [2]: 1.224

C[N+](C)(C)CC=O [Betaine aldehyde chloride]
Raw Signal [3]: 58689
Z-score [7]: 0.1367

NCCCNCCSP(=O)(O)O [Amifostine]
Raw Signal [5]: 55102
Z-score [8]: -0.4951

Cl.Clc1cc(I)cc(Cl)c1NC1=NCCN1 [p-Iodoclonidine hydrochloride]
Raw Signal [3]: 52843
Z-score [4]: -0.2605

CS(=O)(=O)O.Cn1cc(C(F)(F)F)nc1-c1ccc(OCC(O)CNCCOc2ccc(O)c(C(N)=O)c2)cc1 (stereo not drawn) [CGP 20712A methanesulfonate]
Raw Signal [1]: 57129
Z-score [2]: 0.3985

C[N+](C)(C)CCO.[Br-] [Choline bromide]
Raw Signal: 58990
Z-score: 0.1897

O=C1CCC(c2ccc(-n3ccnc3)cc2)=NN1 [Imazodan]
Raw Signal [1]: 60009
Z-score [2]: 0.9834

CC(N)(Cc1ccc(O)cc1)C(=O)O (racemic) [DL-alpha-Methyl-p-tyrosine]
Raw Signal [5]: 72995
Z-score [6]: 2.656

CSc1ccc2c(c1)C(N1CCN(C)CC1)Cc1ccccc1S2 (stereo not drawn) [Methiothepin mesylate]
Raw Signal [1]: 58558
Z-score [2]: 0.6997

CC(C)C(=O)Nc1ccc([N+](=O)[O-])c(C(F)(F)F)c1 [Flutamide]
Raw Signal [5]: 64684
Z-score [6]: 1.9328

Br.COc1ccc2c(c1)[C@]13CCCC[C@@H]1[C@H](C2)N(C)CC3.O
Raw Signal [3]: 54296
Z-score [4]: -0.1769

COc1ccccc1N1CCN(CCN(C(=O)c2ccc(I)cc2)c2ccccn2)CC1.Cl [p-MPPI hydrochloride]
Raw Signal [1]: 60360
Z-score [2]: 1.003

O=C(O)[C@@H]1[C@H](C(=O)O)[C@H]2CC[C@@H]1O2 [Endothall]
Raw Signal [1]: 58370
Z-score [2]: 0.6505

Oc1ccc(C2CNCCc3c2cc(O)c(O)c3Cl)cc1 (stereo not drawn) [Fenoldopam bromide]
Raw Signal [1]: 59808
Z-score [2]: 0.9425

Br.C=CCN1CCc2cccc3c2[C@H]1Cc1ccc(O)c(O)c1-3 [R(-)-N-Allylnorapomorphine hydrobromide]
Raw Signal [5]: 62401
Z-score [6]: 1.469

CC(C)NNC(=O)c1ccncc1.O=P(O)(O)O [Iproniazid phosphate]
Raw Signal [1]: 60567
Z-score [2]: 1.037

CCCNC[C@H](O)COc1ccccc1C(=O)CCc1ccccc1.Cl [(S)-(-)-propafenone hydrochloride]
Raw Signal [5]: 52495
Z-score [8]: -0.6856

Cc1cc(C(C)(C)C)c(O)c(C)c1CC1=NCCN1 [Oxymetazoline hydrochloride]
Raw Signal [3]: 52488
Z-score [4]: -0.3202

Nc1nc(Cl)nc2c1ncn2C1OC(CO)C(O)C1O (stereo not drawn) [2-Chloroadenosine]
Raw Signal [3]: 58125
Z-score [7]: 0.03732

COc1cc(Cc2cnc(N)nc2N)cc(OC)c1OC [Trimethoprim]
Raw Signal [1]: 61776
Z-score [2]: 1.118

CCCN(CCC)[C@@H]1CCc2c(F)ccc(O)c2C1.Cl [R(+)-UH-301 hydrochloride]
Raw Signal [3]: 54775
Z-score [4]: -0.2426

— PMC5706701, “Development of a homogenous high-throughput assay for inositol hexakisphosphate kinase 1 activity” (PLoS ONE, 2017)
